Here are results for two compounds from ChEMBL document CHEMBL1157275, “Biological activities of 7-epiclusianone” (J Nat Prod, 1999).

Series [1] deals with Trypanosoma cruzi. As to the kind of experiment: Antitrypanosomal activity against Trypanosoma cruzi Y trypomastigotes infected in Swiss albino mouse blood assessed as reduction of parasite number at 500 ug/mL after 24 hrs. The arrangement: scale not given: the % may be the effect or the level left. It counts as functional.
The subject of series [2] is Trypanosoma cruzi. The series is described as follows: Antitrypanosomal activity against Trypanosoma cruzi Y trypomastigotes infected in Swiss albino mouse blood assessed as reduction of parasite number at 250 ug/mL after 24 hrs. Format: functional. The arrangement: scale not given: the % may be the effect or the level left.
Series [3] deals with Trypanosoma cruzi. As to the kind of experiment: Antitrypanosomal activity against Trypanosoma cruzi Y trypomastigotes infected in Swiss albino mouse blood assessed as reduction of parasite number at 125 ug/mL after 24 hrs. It counts as functional. Set-up: scale not given: the % may be the effect or the level left.
In series [4] the test system is Clavibacter michiganensis subsp. michiganensis. The series is described as follows: Antimicrobial activity against Clavibacter michiganensis subsp. michiganensis. Format: functional.
Series [5] has as its system Listeria monocytogenes. As to the kind of experiment: Antimicrobial activity against Listeria monocytogenes. It counts as functional.
Series [6] has as its system Staphylococcus aureus. The series is described as follows: Antibacterial activity against Staphylococcus aureus. It counts as functional.
Series [7] is described as follows: Toxicity in Artemia salina. Format: organism-based. The conditions noted are these: in vivo.
The subject of series [8] is Cladosporium sphaerospermum. As to the kind of experiment: Antifungal activity against Cladosporium sphaerospermum. Format: functional, organism-based.
Series [9] relates to Biomphalaria glabrata. As to the kind of experiment: Molluscicidal activity against Biomphalaria glabrata at 20 ppm. Format: functional, organism-based.
The subject of series [10] is Trypanosoma cruzi. The series is described as follows: Antitrypanosomal activity against Trypanosoma cruzi Y trypomastigotes infected in Swiss albino mouse assessed as reduction in parasitaemia at 500 mg/kg, po after 6 hrs. It counts as functional, organism-based. Set-up: dose 500 mg/kg.
Series [11] concerns Trypanosoma cruzi. As to the kind of experiment: Antitrypanosomal activity against Trypanosoma cruzi Y trypomastigotes infected in Swiss albino mouse assessed as mortality rate at 100 mg/kg, po daily for 4 days assessed after 6 to 9 days. Format: functional, organism-based. Set-up: dose 100 mg/kg.

Converted amounts (≈) assume the structure as drawn. The source made the active and inactive calls. No cut-off for these calls is given here.

Regarding `CC(C)=CC[C@H]1C[C@]2(CC=C(C)C)C(=O)C(C(=O)c3ccccc3)=C(O)[C@](CC=C(C)C)(C2=O)C1(C)C`, the Activity in [1] turned out to be 92%; in [2], 38%; in series [3], 17%. Besides, the MIC (commonly the lowest concentration that inhibits growth of the organism) in series [4] was found to be 4 µg/mL (≈ 7.96 µM). Moreover, the IC100 in series [5] and in series [6] was 80 µg/mL throughout. Also, the median lethal concentration (LC50) (as a rule, the concentration lethal to half of the exposed cells or organisms) in [7] amounted to 49.7 µM. Also, the result in series [8], in [9] and in series [11] was inactive. The outcome in series [10] was Active.

In the case of `O=C(Cn1ccnc1[N+](=O)[O-])NCc1ccccc1`, the result in [10] and in series [11] was Active.
